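Exposure lasted 48 hours, with cells grown in 96-well plates and compounds tested at five concentrations. Abbreviation: GI50, concentration required for 50% inhibition of growth. Definition used: TGI = concentration required for complete inhibition of growth.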
How the values were obtained:
Test in all cases: inhibition of tumour cell growth, NCI panel, 48 h
[1] = test system: 786-0 renal
[2] = test system: A498 renal
[3] = test system: A549 NSCLC
[4] = test system: ACHN renal
[5] = test system: BT-549 breast
[6] = test system: CAKI-1 renal
[7] = test system: CCRF-CEM leukemia
[8] = test system: COLO 205 colon
[9] = test system: DU-145 prostate
[10] = test system: EKVX NSCLC
[11] = test system: HCC-2998 colon
[12] = test system: HCT-116 colon
[13] = test system: HCT-15 colon
[14] = test system: HL-60(TB) leukemia
[15] = test system: HOP-62 NSCLC
[16] = test system: HOP-92 NSCLC
[17] = test system: HS 578T breast
[18] = test system: HT29 colon
[19] = test system: IGROV1 ovarian
[20] = test system: K-562 leukemia
[21] = test system: KM12 colon
[22] = test system: LOX IMVI melanoma
[23] = test system: M14 melanoma
[24] = test system: MALME-3M melanoma
[25] = test system: MCF7 breast
[26] = test system: MDA-MB-231 breast
[27] = test system: MDA-MB-435
[28] = test system: MOLT-4 leukemia
[29] = test system: NCI-H226 lung
[30] = test system: NCI-H23 lung
[31] = test system: NCI-H460 lung
[32] = test system: NCI-H522 lung
[33] = test system: NCI/ADR-RES ovarian
[34] = test system: OVCAR-3 ovarian
[35] = test system: OVCAR-4 ovarian
[36] = test system: OVCAR-5 ovarian
[37] = test system: OVCAR-8 ovarian
[38] = test system: PC-3 prostate
[39] = test system: RPMI-8226 leukemia
[40] = test system: RXF 393 renal
[41] = test system: SF-268 CNS
[42] = test system: SF-295 CNS
[43] = test system: SF-539 CNS
[44] = test system: SK-MEL-2 melanoma
[45] = test system: SK-MEL-28 melanoma
[46] = test system: SK-MEL-5 melanoma
[47] = test system: SK-OV-3 ovarian
[48] = test system: SN12C renal
[49] = test system: SNB-19 CNS
[50] = test system: SNB-75 CNS
[51] = test system: SR leukemia
[52] = test system: SW-620 colon
[53] = test system: T-47D breast
[54] = test system: TK-10 renal
[55] = test system: U251 CNS
[56] = test system: UACC-257 melanoma
[57] = test system: UACC-62 melanoma
[58] = test system: UO-31 renal

## CC(C)(C)CC(C)(C)NCc1cc(C(C)(C)C)cc(CNC(C)(C)CC(C)(C)C)c1O
[1]
  GI50: 3.85 µM
  TGI: 14.4 µM
[2]
  GI50: 2.53 µM
  TGI: 11.3 µM
[3]
  GI50: 3.97 µM
  TGI: 14.7 µM
[4]
  GI50: 2.81 µM
  TGI: 10.8 µM
[5]
  GI50: 4.15 µM
  TGI: 14.9 µM
[6]
  GI50: 3.69 µM
  TGI: 17.2 µM
[7]
  GI50: 4.18 µM
  TGI: 34.9 µM
[8]
  GI50: 1.41 µM
  TGI: 2.8 µM
[9]
  GI50: 6.07 µM
  TGI: 18.5 µM
[10]
  GI50: 2.78 µM
  TGI: 14.1 µM
[11]
  GI50: 2.58 µM
  TGI: 8.07 µM
[12]
  GI50: 2.1 µM
  TGI: 5.78 µM
[13]
  GI50: 3.22 µM
  TGI: 12.5 µM
[14]
  GI50: 2.51 µM
  TGI: 8.04 µM
[15]
  GI50: 4.69 µM
  TGI: 17.9 µM
[16]
  GI50: 0.548 µM
  TGI: 4.2 µM
[17]
  GI50: 3.22 µM
  TGI: 20.7 µM
[18]
  GI50: 2.4 µM
  TGI: 9.7 µM
[19]
  GI50: 3.93 µM
  TGI: 15.9 µM
[20]
  GI50: 2.2 µM
  TGI: 9.45 µM
[21]
  GI50: 3.32 µM
  TGI: 11.2 µM
[22]
  GI50: 1.6 µM
  TGI: 3.1 µM
[23]
  GI50: 1.95 µM
  TGI: 4.16 µM
[24]
  GI50: 1.85 µM
  TGI: 4 µM
[25]
  GI50: 3.12 µM
  TGI: 11.3 µM
[26]
  GI50: 1.21 µM
  TGI: 3.78 µM
[27]
  GI50: 2.56 µM
  TGI: 10.9 µM
[28]
  GI50: 2.93 µM
  TGI: 9.34 µM
[29]
  GI50: 2.25 µM
  TGI: 8.89 µM
[30]
  GI50: 2.42 µM
  TGI: 7.8 µM
[31]
  GI50: 3.49 µM
  TGI: 12.9 µM
[32]
  GI50: 1.78 µM
  TGI: 3.66 µM
[33]
  GI50: 2.81 µM
  TGI: 11.7 µM
[34]
  GI50: 2.59 µM
  TGI: 7 µM
[35]
  GI50: 2.62 µM
  TGI: 10.9 µM
[36]
  GI50: 3.02 µM
  TGI: 10 µM
[37]
  GI50: 3.25 µM
  TGI: 12.4 µM
[38]
  GI50: 2.86 µM
  TGI: 12.2 µM
[39]
  GI50: 2.46 µM
  TGI: 6.49 µM
[40]
  GI50: 1.92 µM
  TGI: 5.85 µM
[41]
  GI50: 5.4 µM
  TGI: 18.7 µM
[42]
  GI50: 3.23 µM
  TGI: 11.7 µM
[43]
  GI50: 5.16 µM
  TGI: 17.8 µM
[44]
  GI50: 2.84 µM
  TGI: 6.6 µM
[45]
  GI50: 5.24 µM
  TGI: 17.6 µM
[46]
  GI50: 1.61 µM
  TGI: 2.96 µM
[47]
  GI50: 2.52 µM
  TGI: 8.45 µM
[48]
  GI50: 2.74 µM
  TGI: 11.9 µM
[49]
  GI50: 5.24 µM
  TGI: 17.8 µM
[50]
  GI50: 3.99 µM
  TGI: 15.1 µM
[51]
  GI50: 2.14 µM
  TGI: 5.44 µM
[52]
  GI50: 2.79 µM
  TGI: 12.4 µM
[53]
  GI50: 2.09 µM
  TGI: 5.14 µM
[54]
  GI50: 2.55 µM
  TGI: 5.87 µM
[55]
  GI50: 2.86 µM
  TGI: 12.2 µM
[56]
  GI50: 2.21 µM
  TGI: 6.52 µM
[57]
  GI50: 3.34 µM
  TGI: 12.3 µM
[58]
  GI50: 1.92 µM
  TGI: 9.91 µM
